Test results: PubChem BioAssay (NCI)
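Test compounds were applied to cells in 96-well plates for 48 hours at 5 doses. GI50: concentration for 50% inhibition of growth. TGI marks complete inhibition of growth.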

Assays:
Test in all cases: NCI-60 cell line screen, 48 h
[1] = system: OVCAR-4 ovarian
[2] = system: SNB-75 CNS
[3] = system: SR leukemia
[4] = system: CCRF-CEM leukemia
[5] = system: SK-OV-3 ovarian
[6] = system: M14 melanoma
[7] = system: SF-295 CNS
[8] = system: KM12 colon
[9] = system: HCT-15 colon
[10] = system: SN12C renal
[11] = system: SW-620 colon
[12] = system: COLO 205 colon
[13] = system: SK-MEL-2 melanoma
[14] = system: LOX IMVI melanoma
[15] = system: SNB-19 CNS
[16] = system: HOP-18 NSCLC
[17] = system: TK-10 renal
[18] = system: MALME-3M melanoma
[19] = system: DLD-1 colon
[20] = system: NCI-H522 lung
[21] = system: OVCAR-8 ovarian
[22] = system: ACHN renal
[23] = system: NCI-H226 lung
[24] = system: NCI-H23 lung
[25] = system: UACC-257 melanoma
[26] = system: SF-539 CNS
[27] = system: K-562 leukemia
[28] = system: RPMI-8226 leukemia
[29] = system: A498 renal
[30] = system: NCI-H460 lung
[31] = system: SK-MEL-5 melanoma
[32] = system: U251 CNS
[33] = system: LXFL 529 NSCLC
[34] = system: HL-60(TB) leukemia
[35] = system: SF-268 CNS
[36] = system: IGROV1 ovarian
[37] = system: HCT-116 colon
[38] = system: HT29 colon
[39] = system: UO-31 renal
[40] = system: CAKI-1 renal
[41] = system: A549 NSCLC
[42] = system: HCC-2998 colon
[43] = system: SK-MEL-28 melanoma
[44] = system: DMS 273 small cell lung
[45] = system: OVCAR-3 ovarian
[46] = system: MOLT-4 leukemia
[47] = system: SNB-78 CNS
[48] = system: HOP-62 NSCLC
[49] = system: 786-0 renal
[50] = system: RXF 393 renal
[51] = system: EKVX NSCLC
[52] = system: OVCAR-5 ovarian

For `N.N.NCCCCCCN.O=C([O-])CCl.O=C([O-])CCl.O=C([O-])CCl.O=C([O-])CCl.[Pt+4].[Pt+4]`, the GI50 [1] was greater than 50 µM, the TGI [1] was greater than 50 µM and the GI50 [2] was 8.34 µM. For the same molecule, the TGI [2] was greater than 50 µM, the GI50 [3] was 8.23 µM and the TGI [3] was greater than 50 µM. For the same molecule, the GI50 [4] was 2.73 µM, the TGI [4] was greater than 50 µM and the GI50 [5] was greater than 50 µM. For the same molecule, the TGI [5] was greater than 50 µM, the GI50 [6] was greater than 50 µM and the TGI [6] was greater than 50 µM. The GI50 [7] was greater than 50 µM, the TGI [7] was greater than 50 µM and the GI50 [8] was greater than 50 µM. It also gave a TGI [8] greater than 50 µM, a GI50 [9] greater than 50 µM and a TGI [9] greater than 50 µM. The GI50 [10] was 3.74 µM, the TGI [10] was greater than 50 µM and the GI50 [11] was greater than 50 µM. It also gave a TGI [11] greater than 50 µM, a GI50 [12] of 9.54 µM and a TGI [12] greater than 50 µM. It also gave a GI50 [13] greater than 50 µM, a TGI [13] greater than 50 µM and a GI50 [14] greater than 50 µM. For the same molecule, the TGI [14] was greater than 50 µM, the GI50 [15] was 27.8 µM and the TGI [15] was greater than 50 µM. It also gave a GI50 [16] greater than 50 µM, a TGI [16] greater than 50 µM and a GI50 [17] greater than 50 µM. For the same molecule, the TGI [17] was greater than 50 µM, the GI50 [18] was greater than 50 µM and the TGI [18] was greater than 50 µM. For the same molecule, the GI50 [19] was greater than 50 µM, the TGI [19] was greater than 50 µM and the GI50 [20] was 10.9 µM. The TGI [20] was greater than 50 µM, the GI50 [21] was greater than 50 µM and the TGI [21] was greater than 50 µM. For the same molecule, the GI50 [22] was 35.9 µM, the TGI [22] was greater than 50 µM and the GI50 [23] was 17 µM. It also gave a TGI [23] greater than 50 µM, a GI50 [24] of 27.1 µM and a TGI [24] greater than 50 µM. For the same molecule, the GI50 [25] was greater than 50 µM, the TGI [25] was greater than 50 µM and the GI50 [26] was 45.2 µM. For the same molecule, the TGI [26] was greater than 50 µM, the GI50 [27] was greater than 50 µM and the TGI [27] was greater than 50 µM. The GI50 [28] was greater than 50 µM, the TGI [28] was greater than 50 µM and the GI50 [29] was greater than 50 µM. The TGI [29] was greater than 50 µM, the GI50 [30] was 3.11 µM and the TGI [30] was greater than 50 µM. For the same molecule, the GI50 [31] was greater than 50 µM, the TGI [31] was greater than 50 µM and the GI50 [32] was 25.2 µM. It also gave a TGI [32] greater than 50 µM, a GI50 [33] greater than 50 µM and a TGI [33] greater than 50 µM. It also gave a GI50 [34] of 15.5 µM, a TGI [34] greater than 50 µM and a GI50 [35] of 18.8 µM. The TGI [35] was greater than 50 µM, the GI50 [36] was greater than 50 µM and the TGI [36] was greater than 50 µM. For the same molecule, the GI50 [37] was greater than 50 µM, the TGI [37] was greater than 50 µM and the GI50 [38] was 37.1 µM. It also gave a TGI [38] greater than 50 µM, a GI50 [39] greater than 50 µM and a TGI [39] greater than 50 µM. The GI50 [40] was 24.7 µM, the TGI [40] was greater than 50 µM and the GI50 [41] was greater than 50 µM. The TGI [41] was greater than 50 µM, the GI50 [42] was greater than 50 µM and the TGI [42] was greater than 50 µM. For the same molecule, the GI50 [43] was greater than 50 µM, the TGI [43] was greater than 50 µM and the GI50 [44] was greater than 50 µM. It also gave a TGI [44] greater than 50 µM, a GI50 [45] greater than 50 µM and a TGI [45] greater than 50 µM. The GI50 [46] was 1.73 µM, the TGI [46] was greater than 50 µM and the GI50 [47] was greater than 50 µM. It also gave a TGI [47] greater than 50 µM, a GI50 [48] of 6.04 µM and a TGI [48] greater than 50 µM. For the same molecule, the GI50 [49] was greater than 50 µM, the TGI [49] was greater than 50 µM and the GI50 [50] was 13.1 µM. It also gave a TGI [50] greater than 50 µM, a GI50 [51] greater than 50 µM and a TGI [51] greater than 50 µM. It also gave a GI50 [52] greater than 50 µM and a TGI [52] greater than 50 µM.
